Earlier results, collected in patent publication US20060233841A1, “Implantable gel compositions and method of manufacture” (priority 1999, published 2006).

Conditions: reported value; solubility values considered to be determined at 20° C.

SMILES: CC(=O)OCC(COC(C)=O)OC(C)=O [triacetin]
- solubility in water: 7.17 grams in 100 ml of water
